Results on 55 compounds are retold here after ChEMBL document CHEMBL5052841, “Usp19 inhibitors for use in therapy” (2020).

As usually defined, the IC50 is the concentration needed to halve the response being measured.

The target in the assay is T1, Ubiquitin carboxyl-terminal hydrolase 19 (Homo sapiens, UniProt O94966).
T1 sequence (O94966 whole entry): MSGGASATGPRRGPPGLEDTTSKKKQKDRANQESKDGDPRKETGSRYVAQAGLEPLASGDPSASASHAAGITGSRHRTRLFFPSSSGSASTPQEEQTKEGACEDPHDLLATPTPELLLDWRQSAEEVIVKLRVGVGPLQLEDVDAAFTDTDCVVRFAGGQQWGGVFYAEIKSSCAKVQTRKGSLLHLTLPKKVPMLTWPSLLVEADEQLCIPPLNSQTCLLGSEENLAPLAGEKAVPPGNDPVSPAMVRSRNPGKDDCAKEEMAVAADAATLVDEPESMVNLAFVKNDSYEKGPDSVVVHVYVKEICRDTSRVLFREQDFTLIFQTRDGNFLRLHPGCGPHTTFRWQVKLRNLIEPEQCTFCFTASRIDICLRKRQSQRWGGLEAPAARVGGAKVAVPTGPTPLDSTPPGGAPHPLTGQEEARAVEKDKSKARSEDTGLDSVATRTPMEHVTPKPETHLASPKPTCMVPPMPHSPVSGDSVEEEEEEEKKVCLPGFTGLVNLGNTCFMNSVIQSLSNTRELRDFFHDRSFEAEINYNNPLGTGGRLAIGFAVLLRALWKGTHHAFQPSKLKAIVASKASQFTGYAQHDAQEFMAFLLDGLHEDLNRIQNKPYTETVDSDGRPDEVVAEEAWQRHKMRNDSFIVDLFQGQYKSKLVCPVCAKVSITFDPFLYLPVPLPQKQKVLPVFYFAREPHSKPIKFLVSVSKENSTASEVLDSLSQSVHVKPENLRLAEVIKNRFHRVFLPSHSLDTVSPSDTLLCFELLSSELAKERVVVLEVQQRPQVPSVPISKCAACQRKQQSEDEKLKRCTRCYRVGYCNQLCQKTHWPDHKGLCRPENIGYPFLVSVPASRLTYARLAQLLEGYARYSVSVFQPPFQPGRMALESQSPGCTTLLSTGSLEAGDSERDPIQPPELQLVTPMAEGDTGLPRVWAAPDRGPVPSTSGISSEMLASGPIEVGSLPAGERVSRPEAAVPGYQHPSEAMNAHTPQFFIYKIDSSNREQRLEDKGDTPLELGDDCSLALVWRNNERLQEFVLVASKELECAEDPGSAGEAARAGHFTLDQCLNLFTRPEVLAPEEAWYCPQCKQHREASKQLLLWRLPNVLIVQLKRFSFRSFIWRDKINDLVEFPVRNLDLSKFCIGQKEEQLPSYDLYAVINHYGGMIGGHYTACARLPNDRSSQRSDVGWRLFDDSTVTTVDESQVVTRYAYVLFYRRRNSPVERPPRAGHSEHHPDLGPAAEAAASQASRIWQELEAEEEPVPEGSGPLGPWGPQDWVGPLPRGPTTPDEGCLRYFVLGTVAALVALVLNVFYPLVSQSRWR
Briefly: Inhibition of C-terminal His6-tagged recombinant human USP19 using iso-peptide ubiquitin-Lys-TAMRA as substrate incubated for 30 mins and measured after 90 mins by fluorescent polarization assay.
With `C[C@H](CC(F)(F)F)C(=O)N1CC[C@@](O)(Cn2cnc(-c3ccccc3F)cc2=O)C2(CCCC2)C1`, the IC50 is less than 500 nM.
The result for `C[C@H](CC1CCCCC1)C(=O)N1CC[C@@](O)(Cn2cc(C(=O)N3CCNCC3)c(-c3ccccc3F)cc2=O)C2(CCCC2)C1` reads less than 500 nM; that for `CN(C)C(=O)c1cn(C[C@]2(O)CCN(C(=O)[C@H](CCO)CC3CCCCC3)CC2(C)C)c(=O)cc1-c1ccccc1`, less than 500 nM.
The result for `C[C@H](CC1CCC1)C(=O)N1CC[C@@](O)(Cn2cc(C(=O)N(C)C)c(-c3ccccc3)cc2=O)C2(CCCC2)C1` reads less than 500 nM.
Regarding `CN(C)C(=O)c1cn(CC2(O)CCN(C(=O)[C@@H]3C[C@@H]3c3ccccc3)CC23CCCC3)c(=O)cc1-c1ccccc1` (stereo not given in full), the IC50 is less than 500 nM.
In the case of `C[C@H](CC1CCCCC1)C(=O)N1CCC(O)(Cn2cnc(-c3ccccc3)cc2=O)C(C)(C)C1` (stereo not given in full), the IC50 is less than 500 nM.
The result for `C[C@H](CC1CCCCC1)C(=O)N1CC[C@@](O)(Cn2cc(C(=O)N3CCC(O)CC3)c(-c3ccccc3)cc2=O)C(C)(C)C1` reads less than 500 nM; that for `C[C@H](CC1CC1)C(=O)N1CCC(O)(Cn2cc(C(=O)N(C)C)c(-c3ccccc3)cc2=O)C2(CCCC2)C1` (stereo not given in full), less than 500 nM.
The result for `C[C@H](CC1CCCCC1)C(=O)N1CCC(O)(Cn2cc(C(=O)N3CCNCC3)c(-c3ccccc3)cc2=O)C2(CCCCC2)C1` (stereo not given in full) reads less than 500 nM; that for `C[C@H](CC(C)(F)F)C(=O)N1CC[C@@](O)(Cn2cnc(-c3ccccc3)cc2=O)C2(CCCC2)C1`, less than 500 nM; that for `C[C@H](CC(F)(F)F)C(=O)N1CC[C@@](O)(Cn2cc(C(=O)N3CCNCC3)c(-c3ccccc3)cc2=O)C2(CCCC2)C1`, less than 500 nM.
Take `CN(C)C(=O)c1cn(C[C@]2(O)CCN(C(=O)[C@H](CO)CC(F)(F)F)CC23CCCC3)c(=O)cc1-c1ccccc1`: the IC50 is less than 500 nM.
As for `C[C@H](CC1CCCCC1)C(=O)N1CC[C@@](O)(Cn2cc(C(=O)N3CCNCC3)c(-c3ccccc3)cc2=O)C(C)(C)C1`, the IC50 is less than 500 nM.
The result for `CN(C)C(=O)c1cn(C[C@]2(O)CCN(C(=O)[C@H](CO)CC3CCCCC3)CC2(C)C)c(=O)cc1-c1ccccc1` reads less than 500 nM; that for `CC(C)N(C)C(=O)c1cn(C[C@]2(O)CCN(C(=O)[C@H](C)CC3CCCCC3)CC2(C)C)c(=O)cc1-c1ccccc1`, less than 500 nM; that for `C[C@H](CC(F)(F)F)C(=O)N1CC[C@@](O)(Cn2cnc(-c3cccc(F)c3)cc2=O)C2(CCCC2)C1`, less than 500 nM.
With `O=C(C1CNCC1c1ccccc1)N1CC[C@@](O)(Cn2cnc(-c3ccccc3)cc2=O)C2(CCCC2)C1` (stereo not given in full), the IC50 is less than 500 nM.
`CC(C)N(C)C(=O)c1cn(CC2(O)CCN(C(=O)[C@H](C)CC3CCCCC3)CC2(C)C)c(=O)cc1-c1ccccc1` (stereo not given in full): the half-maximal inhibitory concentration (IC50) was less than 500 nM.
The result for `C[C@H](CC1CCCCC1)C(=O)N1CC[C@@](O)(Cn2cc(C(=O)N(C)C)c(C3CC3)cc2=O)C2(CCCC2)C1` reads less than 500 nM.
The result for `C[C@H](CC1CCCCC1)C(=O)N1CCC(O)(Cn2cnc(-c3cccc(CO)c3)cc2=O)C(C)(C)C1` (stereo not given in full) reads less than 500 nM; that for `CC(OC1CCCCC1)C(=O)N1CCC(O)(Cn2cnc(-c3ccccc3F)cc2=O)C(C)(C)C1` (stereo not given), no less than 50000 nM.
The result for `O=C(C(F)CC1CCCCC1)N1CCC(O)(Cn2cnc(-c3ccccc3F)cc2=O)CC1` (racemic) reads no less than 50000 nM; that for `C[C@H](CC1CCCCC1)C(=O)N1CC[C@@](O)(Cn2cc(C(=O)N3CCN(C)CC3)c(-c3ccccc3)cc2=O)C2(CCCC2)C1`, less than 500 nM; that for `C[C@H](CC1CCCCC1)C(=O)N1CCC(O)(Cn2cc(C(=O)N(C)C)c(-c3ccccc3)cc2=O)C2(CCCCC2)C1` (stereo not given in full), less than 500 nM.
Regarding `C[C@H](CC1CCCCC1)C(=O)N1CC[C@@](O)(Cn2cc(C(=O)N3CCOCC3)c(-c3ccccc3)cc2=O)C2(CCCC2)C1`, the half-maximal inhibitory concentration (IC50) is less than 500 nM.
The result for `C[C@H](CC1CCCCC1)C(=O)N1CCC(O)(Cn2cc(C(=O)N(C)C)c(-c3cccc(CO)c3)cc2=O)C2(CCCC2)C1` (stereo not given in full) reads less than 500 nM.
The result for `CN(C)C(=O)c1cn(CC2(O)CCN(C(=O)c3c[nH]nc3-c3ccccc3)CC23CCCC3)c(=O)cc1-c1ccccc1` (stereo not given) reads no more than 5000 nM; that for `C[C@H](CC1CCCCC1)C(=O)N1CC[C@@](O)(Cn2cc(C(=O)N(C)C)c(-c3ccccc3F)cc2=O)C2(CCCC2)C1`, less than 500 nM.
The result for `C[C@H](CC1CCCCC1)C(=O)N1CCC(O)(Cn2cc(C(=O)N3CCOCC3)c(-c3ccccc3)cc2=O)C(C)(C)C1` (stereo not given in full) reads less than 500 nM; that for `C[C@@H]1CN(C(=O)c2cn(C[C@]3(O)CCN(C(=O)[C@H](C)CC4CCCCC4)CC3(C)C)c(=O)cc2-c2ccccc2)CCN1`, less than 500 nM; that for `C[C@H](CC1CCCCC1)C(=O)N1CC[C@@](O)(Cn2cc(C(=O)N(C)C)c(-c3ccccc3F)cc2=O)C(C)(C)C1`, less than 500 nM.
For the compound `O=C(CCC1CCCC1)N1CCC(O)(Cn2cnc(-c3ccccc3F)cc2=O)CC1`, the IC50 is no less than 50000 nM.
Regarding `O=C(C1CCNC1c1ccccc1)N1CC[C@@](O)(Cn2cnc(-c3ccccc3)cc2=O)C2(CCCC2)C1` (stereo not given in full), the IC50 is less than 500 nM.
For `CC(Cc1ccccc1)C(=O)N1CCC(O)(Cn2cnc(-c3ccccc3F)cc2=O)CC1` (racemic), the IC50 was no less than 5000 nM.
On to `C[C@H](CC1CCCCC1)C(=O)N1CCC(O)(Cn2cc(C(=O)N(C)C)c(N(C)C)cc2=O)C2(CCCC2)C1` (stereo not given in full), for which the IC50 was less than 500 nM.
For the compound `C[C@H](CC1CCC1)C(=O)N1CC[C@@](O)(Cn2cc(C(=O)N3CCNCC3)c(-c3ccccc3)cc2=O)C2(CCCC2)C1`, the IC50 was less than 500 nM.
`C[C@H](CC1CCCCC1)C(=O)N1CCC(O)(Cn2cnc(-c3ccccc3F)cc2=O)C2(CCCC2)C1` (stereo not given in full): the IC50 was less than 500 nM.
In the case of `CC(C)CC(C)C(=O)N1CCC(O)(Cn2cc(C(=O)N(C)C)c(-c3ccccc3)cc2=O)C2(CCCC2)C1` (stereo not given), the IC50 was less than 500 nM.
The result for `O=C(c1cn(C[C@]2(O)CCN(C(=O)C(CC(F)(F)F)CC(F)(F)F)CC23CCCC3)c(=O)cc1-c1ccccc1)N1CCNCC1` reads no more than 5000 nM; that for `CC(CN1CCCCC1)C(=O)N1CCC(O)(Cn2cc(C(=O)N(C)C)c(-c3ccccc3)cc2=O)C2(CCCC2)C1` (stereo not given), no less than 5000 nM.
The result for `C[C@H](CC1CCC1)C(=O)N1CC[C@@](O)(Cn2cc(C(=O)N(C)C)c(-c3ccccc3F)cc2=O)C2(CCCC2)C1` reads less than 500 nM.
The result for `O=C(CCc1ccccc1)N1CCC(O)(Cn2cnc(-c3ccccc3F)cc2=O)CC1` reads no less than 50000 nM.
In the case of `C[C@H](CC1CCCCC1)C(=O)N1CCC(O)(Cn2cnc(-c3ccccc3CN)cc2=O)C(C)(C)C1` (stereo not given in full), the concentration for half-maximal inhibition (IC50) was less than 500 nM.
The result for `CC(n1cnc(-c2ccccc2)cc1=O)C1(O)CCN(C(=O)[C@H](C)CC2CCCCC2)CC1` (stereo not given in full) reads no more than 5000 nM.
The result for `O=C(c1cn(C[C@]2(O)CCN(C(=O)[C@H](CO)CC(F)(F)F)CC23CCCC3)c(=O)cc1-c1ccccc1)N1CCOCC1` reads less than 500 nM; that for `C[C@H](CC1CCCCC1)C(=O)N1CCC(O)(Cn2cnc(-c3ccc(CO)cc3)cc2=O)C(C)(C)C1` (stereo not given in full), less than 500 nM.
The result for `C[C@H](CC1CCCCC1)C(=O)N1CC[C@@](O)(Cn2cc(C(=O)N(C)C)c(-c3ccccc3)cc2=O)C(C)(C)C1` reads less than 500 nM; that for `C[C@H](CC1CCCCC1)C(=O)N1CCC(O)(Cn2cc(C(=O)N3CCN(C)CC3)c(-c3ccccc3)cc2=O)C(C)(C)C1` (stereo not given in full), less than 500 nM.
With `CN(C)C(=O)c1cn(C[C@]2(O)CCN(C(=O)[C@H](CO)CC3CCC3)CC2(C)C)c(=O)cc1-c1ccccc1`, the IC50 was less than 500 nM.
The result for `C[C@H](CC1CCC1)C(=O)N1CC[C@@](O)(Cn2cc(C(=O)N3CCNCC3)c(-c3ccccc3F)cc2=O)C2(CCCC2)C1` reads less than 500 nM; that for `O=C([C@@H]1CCNC[C@H]1c1ccccc1)N1CCC(O)(Cn2cnc(-c3ccccc3)cc2=O)C2(CCCC2)C1` (stereo not given in full), less than 500 nM.
The result for `C[C@H](CC1CCCCC1)C(=O)N1CC[C@@](O)(Cn2cc(C(=O)N(C)C)c(-c3ccccc3)cc2=O)C2(CCCC2)C1` reads less than 500 nM.
The result for `CCOC(=O)c1cn(C[C@]2(O)CCN(C(=O)[C@H](C)CC3CCCCC3)CC23CCCC3)c(=O)cc1-c1ccccc1` reads less than 500 nM.
`O=C(CCC1CCC1)N1CCC(O)(Cn2cnc(-c3ccccc3F)cc2=O)CC1`: the IC50 is no less than 50000 nM.
The result for `C[C@H](CC(F)(F)F)C(=O)N1CC[C@@](O)(Cn2cnc(-c3ccccc3)cc2=O)C2(CCCC2)C1` reads less than 500 nM.
